Experimental data reported in US20060240505A1, “Identification of Targets of Antimicrobial Compounds” (priority 2000, published 2006).
Values after ≈ are worked out from the molar mass of the structure shown. Like-named read-outs stand apart in the source and are kept apart here.

Key:
RN4220/pYH4MurA1 = assay: MIC of phosphomycin against S. aureus RN4220 carrying the murA1 ORF clone, with and without inducer; format: cell-based
Experimental: (§1) The murA1 ORF is cloned into the pYH4 expression vector, the features of which are described above, and the anhydrotetracycline inducer is added to a sample containing the murA1 ORF. In addition, a control sample containing only the vector is induced and the MICs of the induced and uninduced vector are determined. […] This confirms that murA1 is a target of phosphomycin.

RN4220/pYH4 = assay: MIC against S. aureus RN4220 carrying empty expression vector pYH4 (control), with and without inducer; format: cell-based
Experimental: (§2) The pYH4 expression vector was used to clone the FabI ORF and it served as a control for the experiment.
as §1
as §1, with “metRS” for “murA1”, “ORF. The MICs for the anitmicrobial compound of induced and uninduced samples are determined.” for “ORF.”, “the exemplified antimicrobial compound.” for “phosphomycin.”

RN4220/pYH4-fabI = assay: MIC of triclosan against S. aureus RN4220 carrying the fabI ORF clone, with and without inducer; format: cell-based; details: Staphylococcus aureus, strain RN4220/pYH4-fabI, read-out: MIC concentration of triclosan necessary to inhibit the strain
Text: This confirms that FabI is a target of triclosan.
as §2

[1] = system: RN4220/pYH4 and RN4220/pYH4-fabI mixed in the ratio of 100:1; assay: Selection of triclosan resistant colonies on TSA plates from a mixed culture; format: cell-based, S. aureus; details: approximately 1,000 bacterial cells plated
Experimental: In the experiment, a S. aureus strain with expression vector (RN4220/pYH4) was combined with the expression vector and FabI open reading frame (RN4220/pYH4-fabI) in the ratio of 100:1. Then, approximately 1,000 bacterial cells of this mixture were plated onto TSA plates containing: (1) no triclosan (-triclosan); (2) 0.25 μg/ml of triclosan; and (3) 0.25 μg/ml of triclosan plus 0.4 μg/ml anhydrotetracycline inducer. […] The third plate was indicative of FabI-containing clones which are confirmed to be targets of the triclosan antimicrobial compound.

| Structure (SMILES) | MIC of the induced murA1 gene relative to the uninduced vector alone (RN4220/pYH4MurA1; induced murA1 clone vs uninduced vector) [fold] | MIC of phosphomycin (RN4220/pYH4MurA1; strain RN4220/pYH4MurA1, +ATc) [µg/mL] | MIC of phosphomycin (RN4220/pYH4MurA1; strain RN4220/pYH4MurA1, −Atc) [µg/mL] | MIC of the uninduced murA1 gene relative to the uninduced vector alone (RN4220/pYH4MurA1; uninduced murA1 clone vs uninduced vector) [fold] | MIC of phosphomycin (RN4220/pYH4; strain RN4220/pYH4, +ATc) [µg/mL] | MIC of phosphomycin (RN4220/pYH4; strain RN4220/pYH4, −Atc) [µg/mL] | MIC (RN4220/pYH4-fabI; +inducer) [µg/mL] | MIC (RN4220/pYH4-fabI; −inducer) [µg/mL] | MIC (RN4220/pYH4; Staphylococcus aureus, strain RN4220/pYH4, −inducer, read-out: MIC concentration of triclosan necessary to inhibit the strain) [µg/mL] | MIC concentration of triclosan necessary to inhibit the strain (RN4220/pYH4; strain RN4220/pYH4, +inducer) [µg/mL] | colonies grown on TSA plate ([1]; 0.25 μg/ml triclosan plus 0.4 μg/ml anhydrotetracycline inducer) [colonies] | colonies grown on TSA plate ([1]; 0.25 μg/ml triclosan, no inducer) |
| --- | --- | --- | --- | --- | --- | --- | --- | --- | --- | --- | --- | --- |
| C[C@@H]1O[C@@H]1P(=O)(O)O [phosphomycin] | 64 | 256 | 32 | 8 | 2 | 4 |  |  |  |  |  |  |
| Oc1cc(Cl)ccc1Oc1ccc(Cl)cc1Cl [triclosan] |  |  |  |  |  |  | 1 | 0.0625 | 0.0625 (≈ 0.216 µM) | 0.0625 | 15 | no colonies grew |
